Usually IC50 stands for the concentration that gives 50% inhibition. High values mean lower potency, low ones higher potency.

Bounds are passed on as bounds.

The experiment deals with Ba/F3-ETV6-BTK-T474I cells. Kind of experiment: Viability assay of Ba/F3-ETV6-BTK-T474I cells (CTG). Format: cell-based. The note with it: Mus musculus, BaF3, cell viability, 72 hours. On the procedure: The in vitro antiproliferative activity of the compounds of the present disclosure against Ba/F3-ETV6-BTK-T474I cells was assayed using CTG luminescent cell viability assay. The specific assay methods were as follows: • a) Ba/F3-ETV6-BTK-T474I cells were cultured at 37 °C and 5% CO2 in complete medium [RPMI 1640 (supplier Gibco, product number 22400-089) + 10% FBS (supplier Gibco, product number 10091-148)]. • b) Cells in the logarithmic growth phase were harvested, and cell counting was performed using a […]. Trypan blue exclusion test was used to determine the cell viability, ensuring that the cell viability was above 90%. • c) Cell density was adjusted using complete culture medium. Then, the cells were inoculated at 90 µL, a total of 3000 cells per well in a 96-well cell culture plate (supplier: Shanghai Jing An Biotechnology Co., Ltd., product number J09601). • d) The cells in the 96-well plate were cultured at 37 °C and 5% CO2. • e) A 10-fold drug solution was prepared, and then 10 µL of each serially diluted compound was transferred to the corresponding assay wells of the 96-well cell plate so that the final assay concentration was 1000 nM, with 9 concentrations, 3.16-fold dilutions, and triplicates for each drug concentration. • f) The cells in the 96-well plate with the drug added were cultured at 37 °C and 5% CO2 for another 72 hours. Then, CTG analysis was performed. • g) The CTG reagent was melted, and the cell plate was equilibrated at room temperature for 30 minutes. • h) An equal volume of CTG solution was added to each well. • i) The plate was shaken on an orbital shaker for 5 minutes to lyse the cells. • j) The cell plate was placed at room temperature for 20 minutes to stabilize the luminescent signal. • k) The luminescent signal values were read and the data were collected.
The data were analyzed using GraphPad Prism 7.0 software. Nonlinear S-curve regression was used to fit the data to give a dose-response curve, from which the IC50 values were calculated. [formula]
`COc1ccc(F)cc1C(=O)NCc1ccc(-c2ncc(-c3ccc(C)cn3)c3[nH]nc(N)c23)cc1` [Example 37, N-(4-(3-amino-7-(5-methylpyridin-2-yl)-1H-pyrazolo[4,3-c]pyridin-4-yl)benzyl)-5-fluoro-2-methoxybenzamide] returned an IC50 of 10 to 50 nM.

Consider `COc1ccc(F)cc1C(=O)NCc1ccc(-c2ncc(-c3ccc(C4COC4)cn3)c3[nH]nc(N)c23)cc1` [Example 43, N-(4-(3-amino-7-(5-(oxetan-3-yl)pyridin-2-yl)-1H-pyrazolo[4,3-c]pyridin-4-yl)benzyl)-5-fluoro-2-methoxybenzamide], for which the IC50 was in the range of 5 to 10 nM.

`COc1ccc(F)cc1C(=O)NCc1ccc(-c2ncc(-c3cc4ncccn4n3)c3[nH]nc(N)c23)cc1` [Example 44, N-(4-(3-amino-7-(pyrazolo[1,5-a]pyrimidin-2-yl)-1H-pyrazolo[4,3-c]pyridin-4-yl)benzyl)-5-fluoro-2-methoxybenzamide] displayed an IC50 of 5 to 10 nM.

For `COc1ccc(F)cc1C(=O)NCc1ccc(-c2ncc(-c3ccn4nccc4n3)c3[nH]nc(N)c23)cc1` [Example 46, N-(4-(3-amino-7-(pyrazolo[1,5-a]pyrimidin-5-yl)-1H-pyrazolo[4,3-c]pyridin-4-yl)benzyl)-5-fluoro-2-methoxybenzamide], the IC50 was over 50 nM.

`COc1ccc(F)cc1C(=O)NCc1ccc(-c2ncc(-c3ccc(C(=O)N4CCOCC4)cn3)c3[nH]nc(N)c23)cc1` [Example 52, N-(4-(3-amino-7-(5-(morpholine-4-carbonyl)pyridin-2-yl)-1H-pyrazolo[4,3-c]pyridin-4-yl)benzyl)-5-fluoro-2-methoxybenzamide]: the IC50 was at most 5 nM.

With `COc1ccc(F)cc1C(=O)NCc1ccc(-c2ncc(-c3ccc(C(=O)N4C[C@H](C)O[C@@H](C)C4)cn3)c3[nH]nc(N)c23)cc1` [Example 53, N-(4-(3-amino-7-(5-((2S,6S)-2,6-dimethylmorpholine-4-carbonyl)pyridin-2-yl)-1H-pyrazolo[4,3-c]pyridin-4-yl)benzyl)-5-fluoro-2-methoxybenzamide], the IC50 was at most 5 nM.

On to `COCCOc1ccc(-c2cnc(-c3ccc(CNC(=O)c4cc(F)ccc4OC)cc3)c3c(N)n[nH]c23)nc1` [Example 59, N-(4-(3-amino-7-(5-(2-methoxyethoxy)pyridin-2-yl)-1H-pyrazolo[4,3-c]pyridin-4-yl)benzyl)-5-fluoro-2-methoxybenzamide], for which the IC50 was 5 to 10 nM.

For the compound `COc1ccc(F)cc1C(=O)NCc1ccc(-c2ncc(-c3ccc(OCCN(C)C)cn3)c3[nH]nc(N)c23)cc1` [Example 60, N-(4-(3-amino-7-(5-(2-(dimethylamino)ethoxy)pyridin-2-yl)-1H-pyrazolo[4,3-c]pyridin-4-yl)benzyl)-5-fluoro-2-methoxybenzamide], the IC50 was 5 to 10 nM.

For `COc1ccc(F)cc1C(=O)NCc1ccc(-c2ncc(-c3ccc(OCCN4CCOCC4)cn3)c3[nH]nc(N)c23)cc1` [Example 61, N-(4-(3-amino-7-(5-(2-morpholinoethoxy)pyridin-2-yl)-1H-pyrazolo[4,3-c]pyridin-4-yl)benzyl)-5-fluoro-2-methoxybenzamide], the IC50 is at most 5 nM.

`COc1ccc(F)cc1C(=O)NCc1ccc(-c2ncc(-c3ccc(OCCN4CCCC4)cn3)c3[nH]nc(N)c23)cc1` [Example 62, N-(4-(3-amino-7-(5-(2-(pyrrolidin-1-yl)ethoxy)pyridin-2-yl)-1H-pyrazolo[4,3-c]pyridin-4-yl)benzyl)-5-fluoro-2-methoxybenzamide]: the IC50 fell in the range of 10 to 50 nM.

In turn, `COc1ccc(F)cc1C(=O)NCc1ccc(-c2ncc(-c3ccc(C(C)(C)O)cn3)c3[nH]nc(N)c23)cc1` [Example 65, N-(4-(3-amino-7-(5-(2-hydroxypropan-2-yl)pyridin-2-yl)-1H-pyrazolo[4,3-c]pyridin-4-yl)benzyl)-5-fluoro-2-methoxybenzamide] showed an IC50 of at most 5 nM.

For the compound `COc1ccc(F)cc1C(=O)NCc1ccc(-c2ncc(-c3ccc(CN4CCCCC4)cn3)c3[nH]nc(N)c23)cc1` [Example 66, N-(4-(3-amino-7-(5-(piperidin-1-ylmethyl)pyridin-2-yl)-1H-pyrazolo[4,3-c]pyridin-4-yl)benzyl)-5-fluoro-2-methoxybenzamide], the IC50 is at most 5 nM.

With `COc1ccc(F)cc1C(=O)NCc1ccc(-c2ncc(-c3ccc(CN4CCOCC4)cn3)c3[nH]nc(N)c23)cc1` [Example 67, N-(4-(3-amino-7-(5-(morpholinomethyl)pyridin-2-yl)-1H-pyrazolo[4,3-c]pyridin-4-yl)benzyl)-5-fluoro-2-methoxybenzamide], the IC50 is at most 5 nM.

For the compound `COc1ccc(F)cc1C(=O)NCc1ccc(-c2ncc(-c3ccc(CN4CCN(C)CC4)cn3)c3[nH]nc(N)c23)cc1` [Example 68, N-(4-(3-amino-7-(5-((4-methylpiperazin-1-yl)methyl)pyridin-2-yl)-1H-pyrazolo[4,3-c]pyridin-4-yl)benzyl)-5-fluoro-2-methoxybenzamide], the IC50 was at most 5 nM.

`COc1ccc(F)cc1C(=O)NCc1ccc(-c2ncc(-c3cc4ccccn4n3)c3[nH]nc(N)c23)cc1` [Example 69, N-(4-(3-amino-7-(pyrazolo[1,5-a]pyridin-2-yl)-1H-pyrazolo[4,3-c]pyridin-4-yl)benzyl)-5-fluoro-2-methoxybenzamide] displayed an IC50 of 10 to 50 nM.

Take `COc1ccc(F)cc1C(=O)NCc1ccc(-c2ncc(-c3cc4n(n3)CCN(C)C4)c3[nH]nc(N)c23)cc1` [Example 71, N-(4-(3-amino-7-(5-methyl-4,5,6,7-tetrahydropyrazolo[1,5-a]pyrazin-2-yl)-1H-pyrazolo[4,3-c]pyridin-4-yl)benzyl)-5-fluoro-2-methoxybenzamide]: the IC50 was 5 to 10 nM.

On to `CCN1CCn2nc(-c3cnc(-c4ccc(CNC(=O)c5cc(F)ccc5OC)cc4)c4c(N)n[nH]c34)cc2C1` [Example 72, N-(4-(3-amino-7-(5-ethyl-4,5,6,7-tetrahydropyrazolo[1,5-a]pyrazin-2-yl)-1H-pyrazolo[4,3-c]pyridin-4-yl)benzyl)-5-fluoro-2-methoxybenzamide], for which the IC50 lay within 5 to 10 nM.

Turning to `COc1ccc(F)cc1C(=O)NCc1ccc(-c2ncc(-c3ccc(N4CCN(C)C[C@@H]4C)cn3)c3[nH]nc(N)c23)cc1` [Example 74, (S)-N-(-4-(3-amino-7-(5-(2,4-dimethylpiperazin-1-yl)pyridin-2-yl) 1H-pyrazolo[4,3-c]pyridin-4-yl)benzyl)-5-fluoro-2-methoxybenzamide], the IC50 was at most 5 nM.

For `COc1ccc(F)cc1C(=O)NCc1ccc(-c2ncc(-c3ccc(N4CCN(C)C[C@H]4C)cn3)c3[nH]nc(N)c23)cc1` [Example 75, (R)-N-(-4-(3-amino-7-(5-(2,4-dimethylpiperazin-1-yl)pyridin-2-yl) 1H-pyrazolo[4,3-c]pyridin-4-yl)benzyl)-5-fluoro-2-methoxybenzamide], the IC50 is at most 5 nM.

Compound `COc1ccc(F)cc1C(=O)NCc1ccc(-c2ncc(-c3ccc(N4CCOCC4)cn3)c3[nH]nc(N)c23)cc1` [Example 76, N-(4-(3-amino-7-(5-morpholinopyridin-2-yl)-1H-pyrazolo[4,3-c]pyridin-4-yl)benzyl)-5-fluoro-2-methoxybenzamide] had an IC50 of at most 5 nM.

For `COc1ccc(F)cc1C(=O)NCc1ccc(-c2nc(C3CCOCC3)cc3[nH]nc(N)c23)cc1` [Example 115, N-(4-(3-amino-6-(tetrahydro-2H-pyran-4-yl)-1H-pyrazolo[4,3-c]pyridin-4-yl)benzyl)-5-fluoro-2-methoxybenzamide], the IC50 was over 50 nM.

Values taken from patent EP4741392A1, “1H-PYRAZOLO[4,3-C]PYRIDINE COMPOUND, AND COMPOSITION THEREOF AND USE THEREOF” (Shenzhen TargetRx Co., Ltd., priority 2023, dated 2025).
